These results are taken from patent US10435399B2, “HDAC6 inhibitory heterocyclic compound” (TAKEDA PHARMACEUTICAL COMPANY LIMITED, priority 2017, dated 2019).

Like-named read-outs stand apart in the source and are kept apart here.

The assay deals with T1, HDAC6 enzyme (Homo sapiens, UniProt Q9UBN7).
T1 construct: transducing full length HDAC6 gene into Sf-9 insect cells; GST; purchased SignalChem; host or cells: Sf-9 insect cells
T1 sequence (Q9UBN7 1-1215): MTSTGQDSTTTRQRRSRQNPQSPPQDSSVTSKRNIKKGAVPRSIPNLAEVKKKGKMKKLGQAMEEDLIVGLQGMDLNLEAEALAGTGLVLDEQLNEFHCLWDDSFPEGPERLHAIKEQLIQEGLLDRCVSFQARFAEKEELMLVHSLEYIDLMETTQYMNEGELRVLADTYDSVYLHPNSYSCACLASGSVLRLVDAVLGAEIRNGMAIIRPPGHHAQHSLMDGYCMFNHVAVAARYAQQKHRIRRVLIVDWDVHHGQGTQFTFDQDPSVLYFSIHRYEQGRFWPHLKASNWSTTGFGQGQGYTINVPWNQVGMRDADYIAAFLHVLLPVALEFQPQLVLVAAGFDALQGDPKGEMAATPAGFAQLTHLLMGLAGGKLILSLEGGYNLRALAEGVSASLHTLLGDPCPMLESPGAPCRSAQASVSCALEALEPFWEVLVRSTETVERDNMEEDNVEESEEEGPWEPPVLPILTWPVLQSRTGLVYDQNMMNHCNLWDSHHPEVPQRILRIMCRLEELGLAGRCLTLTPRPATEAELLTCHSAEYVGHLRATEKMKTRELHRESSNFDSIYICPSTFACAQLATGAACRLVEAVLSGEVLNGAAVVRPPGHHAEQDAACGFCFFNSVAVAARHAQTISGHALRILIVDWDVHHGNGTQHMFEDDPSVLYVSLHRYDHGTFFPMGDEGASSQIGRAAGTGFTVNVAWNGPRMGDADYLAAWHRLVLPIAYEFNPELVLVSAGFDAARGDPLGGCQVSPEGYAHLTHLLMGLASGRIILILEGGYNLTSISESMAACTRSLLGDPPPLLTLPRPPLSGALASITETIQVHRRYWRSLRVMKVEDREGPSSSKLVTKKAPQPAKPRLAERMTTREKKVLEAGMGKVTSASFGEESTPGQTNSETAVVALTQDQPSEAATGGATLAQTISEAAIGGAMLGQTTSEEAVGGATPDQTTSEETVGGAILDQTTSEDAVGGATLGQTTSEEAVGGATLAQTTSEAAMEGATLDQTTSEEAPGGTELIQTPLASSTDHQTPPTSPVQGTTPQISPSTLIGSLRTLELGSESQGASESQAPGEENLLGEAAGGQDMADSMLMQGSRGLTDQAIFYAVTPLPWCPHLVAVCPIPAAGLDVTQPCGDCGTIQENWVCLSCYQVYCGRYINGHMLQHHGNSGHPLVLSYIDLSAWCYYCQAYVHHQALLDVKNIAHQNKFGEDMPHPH
In words: HDAC6 enzyme inhibitory activity (HDAC-Glo I/II Assay kit). The class given is biochemical. The following applies: for inhibition at 10 µM: read-out: HDAC6 inhibitory rate (%) (10 μM). An outline of the steps:
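Luminescent HDAC-Glo I/II readout after 20 min room-temperature reaction with substrate-developer, following 60 min compound–enzyme preincubation. Enzyme: full-length HDAC6 from Sf-9 cells, GST-purified; buffer 24 mM Tris-HCl pH 7.5, 0.01% Tween-20, glutathione, salts. Wells lacking enzyme define 100% inhibition.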

Where [1] appears, read: 10 μM, wells without enzyme = 100% inhibition.

With `CC(C)(C)OC(=O)NC1CCC(c2cc(F)ccc2N2Cc3ccc(-c4nnc(C(F)F)o4)cc3C2=O)CC1` (stereo not shown) [Example 525, tert-butyl (4-(2-(6-(5-(difluoromethyl)-1,3,4-oxadiazol-2-yl)-1-oxo-1,3-dihydro-2H-isoindol-2-yl)-5-fluorophenyl)cyclohexyl)carbamate], the inhibition at 10 µM under setting [1] is 100%. Consider `O=C1c2cc(-c3nnc(C(F)F)o3)ccc2CN1N1CCC(F)(F)CC1c1ccccc1` (stereo not shown) [Example 530, 6-(5-(difluoromethyl)-1,3,4-oxadiazol-2-yl)-2-(4,4-difluoro-2-phenylpiperidin-1-yl)isoindolin-1-one], for which the inhibition at 10 µM under setting [1] was determined as 100%. On to `O=C1c2cc(-c3nnc(C(F)F)o3)ccc2CN1[C@@H]1CCCC[C@H]1N1CC(F)(F)C(F)(F)C(F)(F)C1` [Example 531, 6-(5-(difluoromethyl)-1,3,4-oxadiazol-2-yl)-2-((1R,2R)-2-(3,3,4,4,5,5-hexafluoropiperidin-1-yl)cyclohexyl)isoindolin-1-one], for which the inhibition at 10 µM stood at 100%.

For the compound `Cn1cc(C2CCC(NC(=O)C(F)(F)C(F)(F)F)CC2)c(N2Cc3ccc(-c4nnc(C(F)F)o4)cc3C2=O)n1` (stereo not shown) [Example 532, N-(4-(3-(6-(5-(difluoromethyl)-1,3,4-oxadiazol-2-yl)-1-oxo-1,3-dihydro-2H-isoindol-2-yl)-1-methyl-1H-pyrazol-4-yl)cyclohexyl)-2,2,3,3,3-pentafluoropropanamide], the inhibition at 10 µM under setting [1] is 99%. Same read-out and setting: to `O=C1c2cc(-c3nnc(C(F)F)o3)ccc2CN1c1ccc(F)cc1C1CCN(C(=O)C(F)(F)C(F)(F)F)CC1` [Example 533, 6-(5-(difluoromethyl)-1,3,4-oxadiazol-2-yl)-2-(4-fluoro-2-(1-(2,2,3,3,3-pentafluoropropanoyl)piperidin-4-yl)phenyl)isoindolin-1-one] belongs 98%; to `O=C1c2cc(-c3nnc(C(F)F)o3)ccc2CN1c1ccc(F)cc1C1CCC(NC(=O)C(F)(F)C(F)(F)F)CC1` (stereo not shown) [Example 534, N-(4-(2-(6-(5-(difluoromethyl)-1,3,4-oxadiazol-2-yl)-1-oxo-1,3-dihydro-2H-isoindol-2-yl)-5-fluorophenyl)cyclohexyl)-2,2,3,3,3-pentafluoropropanamide], 100%; to `O=C1c2cc(-c3nnc(C(F)F)o3)ccc2CN1[C@@H]1CCCC[C@H]1n1nnc2ccccc21` [Example 536, 2-((1R,2R)-2-(1H-benzotriazol-1-yl)cyclohexyl)-6-(5-(difluoromethyl)-1,3,4-oxadiazol-2-yl)isoindolin-1-one], 100%. Same read-out and setting: to `O=C1c2cc(-c3nnc(C(F)F)o3)cnc2CN1[C@@H]1CCCC[C@H]1n1nnc2ccccc21` [Example 537, 6-((1R,2R)-2-(1H-benzotriazol-1-yl)cyclohexyl)-3-(5-(difluoromethyl)-1,3,4-oxadiazol-2-yl)-6,7-dihydro-5H-pyrrolo[3,4-b]pyridin-5-one] belongs 100%; to `O=C1c2cc(-c3nnc(C(F)F)o3)ccc2CN1[C@@H]1CCCC[C@H]1c1nnc2ccccn12` [Example 547, 6-(5-(difluoromethyl)-1,3,4-oxadiazol-2-yl)-2-((1R,2R)-2-([1,2,4]triazolo[4,3-a]pyridin-3-yl)cyclohexyl)isoindolin-1-one], 100%; to `Cn1cc(C2CCN(CC(F)(F)C(F)(F)F)CC2)c(N2Cc3ccc(-c4nnc(C(F)F)o4)cc3C2=O)n1` [Example 550, 6-(5-(difluoromethyl)-1,3,4-oxadiazol-2-yl)-2-(1-methyl-4-(1-(2,2,3,3,3-pentafluoropropyl)piperidin-4-yl)-1H-pyrazol-3-yl)isoindolin-1-one], 99%. The same measure, in the same setting: under `O=C1c2cc(-c3nnc(C(F)F)o3)ccc2CN1N1CCCC1c1cccc(F)c1` (stereo not shown) [Example 553, 6-(5-(difluoromethyl)-1,3,4-oxadiazol-2-yl)-2-(2-(3-fluorophenyl)pyrrolidin-1-yl)isoindolin-1-one] stands 100%. For the compound `O=C1c2cc(-c3nnc(C(F)F)o3)ccc2CN1N1CCC(F)(F)CC1c1ccccc1` (stereo not drawn) [Example 554, 6-(5-(difluoromethyl)-1,3,4-oxadiazol-2-yl)-2-(4,4-difluoro-2-phenylpiperidin-1-yl)isoindolin-1-one (optical isomer)], the “HDAC6 inhibitory rate (%) (10 μM)” value under setting [1] came to 100%. On the same count and under the same terms, under `O=C1c2cc(-c3nnc(C(F)F)o3)ccc2CN1N1CCC(F)(F)CC1c1ccccc1` (stereo not drawn) [Example 555, 6-(5-(difluoromethyl)-1,3,4-oxadiazol-2-yl)-2-(4,4-difluoro-2-phenylpiperidin-1-yl)isoindolin-1-one (optical isomer)] stands 100%. Take `Cn1cc(C2CCC(NCC(F)(F)C(F)(F)F)CC2)c(N2Cc3ccc(-c4nnc(C(F)F)o4)cc3C2=O)n1` (stereo not shown) [Example 557, 6-(5-(difluoromethyl)-1,3,4-oxadiazol-2-yl)-2-(1-methyl-4-(4-((2,2,3,3,3-pentafluoropropyl)amino)cyclohexyl)-1H-pyrazol-3-yl)isoindolin-1-one]: under setting [1], the inhibition at 10 µM came to 99%.

Take `O=C1c2cc(-c3nnc(C(F)F)o3)ccc2CN1N1CCC(F)(F)CC1c1cccc(F)c1` (stereo not shown) [Example 560, 2-(4,4-difluoro-2-(3-fluorophenyl)piperidin-1-yl)-6-(5-(difluoromethyl)-1,3,4-oxadiazol-2-yl)isoindolin-1-one]: the inhibition at 10 µM under setting [1] was 100%.

Turning to `O=C1c2cc(-c3nnc(C(F)F)o3)ccc2CN1N1CCC(F)(F)CC1c1cccc(F)c1` (stereo not drawn) [Example 562, 2-(4,4-difluoro-2-(3-fluorophenyl)piperidin-1-yl)-6-(5-(difluoromethyl)-1,3,4-oxadiazol-2-yl)isoindolin-1-one (optical isomer)], the “HDAC6 inhibitory rate (%) (10 μM)” value under setting [1] worked out at 99%. Turning to `O=C1c2cc(-c3nnc(C(F)F)o3)ccc2CN1[C@@H]1CCOC[C@H]1n1nnc2cc(Cl)ccc21` [Example 563, 2-((3S,4R)-3-(5-chloro-1H-benzotriazol-1-yl)tetrahydro-2H-pyran-4-yl)-6-(5-(difluoromethyl)-1,3,4-oxadiazol-2-yl)isoindolin-1-one], the inhibition at 10 µM under setting [1] is 100%. On the same count and under the same terms, under `O=C(NCC(F)(F)F)C1CC(F)(F)CCN1N1Cc2ccc(-c3nnc(C(F)F)o3)cc2C1=O` (stereo not shown) [Example 564, 1-(6-(5-(difluoromethyl)-1,3,4-oxadiazol-2-yl)-1-oxo-1,3-dihydro-2H-isoindol-2-yl)-4,4-difluoro-N-(2,2,2-trifluoroethyl)piperidine-2-carboxamide] stands 100%.

As for `O=C1c2cc(-c3nnc(C(F)F)o3)ccc2CN1N1CCC(F)(F)CC1c1cccc(F)c1` (stereo not drawn) [Example 565, 2-(4,4-difluoro-2-(3-fluorophenyl)piperidin-1-yl)-6-(5-(difluoromethyl)-1,3,4-oxadiazol-2-yl)isoindolin-1-one (optical isomer)], under setting [1], the “HDAC6 inhibitory rate (%) (10 μM)” value came to 100%.

Take `O=C1c2cc(-c3nnc(C(F)F)o3)ccc2CN1N1CCC(F)(F)CC1c1ccc(F)cc1` (stereo not shown) [Example 566, 2-(4,4-difluoro-2-(4-fluorophenyl)piperidin-1-yl)-6-(5-(difluoromethyl)-1,3,4-oxadiazol-2-yl)isoindolin-1-one]: under setting [1], the inhibition at 10 µM stood at 100%. On the same count and under the same terms, to `Cn1cc(C(=O)NCC(F)(F)F)c(N2Cc3ccc(-c4nnc(C(F)F)o4)cc3C2=O)n1` [Example 567, 3-(6-(5-(difluoromethyl)-1,3,4-oxadiazol-2-yl)-1-oxo-1,3-dihydro-2H-isoindol-2-yl)-1-methyl-N-(2,2,2-trifluoroethyl)-1H-pyrazole-4-carboxamide] belongs 95%; to `Cn1cc(C(=O)NCC2CC2)c(N2Cc3ccc(-c4nnc(C(F)F)o4)cc3C2=O)n1` [Example 568, N-(cyclopropylmethyl)-3-(6-(5-(difluoromethyl)-1,3,4-oxadiazol-2-yl)-1-oxo-1,3-dihydro-2H-isoindol-2-yl)-1-methyl-1H-pyrazole-4-carboxamide], 96%.
